Experimental data from patent US8409600B2, “Methods for prevention and/or treatment of capsular contracture” (J&E Solutions, LLC, priority 2009, dated 2013).

Test system: breast capsular contracture
Test: Clinical cases: topical treatment of breast capsular contracture (Baker grade)
Format: in vivo, human
Conditions: Patient #1, Aleve and massage after first revision (bilateral Grade 3 capsular contracture)
Excerpt: The methods of the present invention for prevention of capsular contracture comprise topical application of the composition using the following steps: • Wash and dry the affected area (that is, the skin surrounding the implant or the skin over the capsular contracture) prior to use. • Apply the composition daily (use sparingly) with vigorous massage to affected area. If necessary, exert compression or pressure when massaging to break up existing capsule. Enhanced absorption is obtained with application of the composition following a hot shower. Occlusive dressing (hydrogel), or tight clothing (sports bras), will also enhance the result. Continued daily use will yield optimal results. […] Optimal results are best maintained with daily continued application. One particularly useful embodiment of the invention involves the use of the topical compositions for the treatment/prevention of capsular contracture in breast surgery (e.g., breast implants). There are four grades of breast capsular contracture—Baker grades I through IV. The Baker grading is as follows: • Grade I—the breast is normally soft and looks natural • Grade II—the breast is a little firm but looks normal • Grade III—the breast is firm and looks abnormal • Grade IV—the breast is hard, painful, and looks abnormal. • of developed or is at risk of developing capsular contracture a topical composition. Clinical Cases Patient #1

For COc1ccc2cc([C@H](C)C(=O)O)ccc2c1 [Aleve, naproxen sodium], the “response of capsular contracture to treatment” value was “without result”.
